Measured values published in ChEMBL document CHEMBL5291721, “A preclinical secondary pharmacology resource illuminates target-adverse drug reaction associations of marketed drugs” (Nat Commun, 2023).

Columns and labels:
[1] = molecular target: T1, 5-hydroxytryptamine receptor 1A (Homo sapiens, UniProt P08908)
T1 sequence (P08908 whole entry): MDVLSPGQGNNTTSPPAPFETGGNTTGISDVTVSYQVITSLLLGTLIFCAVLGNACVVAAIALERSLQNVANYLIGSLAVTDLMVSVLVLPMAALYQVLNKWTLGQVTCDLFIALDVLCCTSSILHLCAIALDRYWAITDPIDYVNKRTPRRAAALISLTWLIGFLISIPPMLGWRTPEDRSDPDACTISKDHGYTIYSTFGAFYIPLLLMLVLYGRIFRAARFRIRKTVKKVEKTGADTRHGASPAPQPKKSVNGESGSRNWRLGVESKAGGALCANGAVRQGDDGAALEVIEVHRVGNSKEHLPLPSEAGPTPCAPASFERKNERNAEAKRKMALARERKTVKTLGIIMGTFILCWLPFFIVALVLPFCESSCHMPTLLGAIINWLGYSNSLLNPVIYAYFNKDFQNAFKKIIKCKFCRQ

[2] = molecular target: T2, Amine oxidase [flavin-containing] A (Homo sapiens, UniProt P21397); type: functional
T2 sequence (P21397 whole entry): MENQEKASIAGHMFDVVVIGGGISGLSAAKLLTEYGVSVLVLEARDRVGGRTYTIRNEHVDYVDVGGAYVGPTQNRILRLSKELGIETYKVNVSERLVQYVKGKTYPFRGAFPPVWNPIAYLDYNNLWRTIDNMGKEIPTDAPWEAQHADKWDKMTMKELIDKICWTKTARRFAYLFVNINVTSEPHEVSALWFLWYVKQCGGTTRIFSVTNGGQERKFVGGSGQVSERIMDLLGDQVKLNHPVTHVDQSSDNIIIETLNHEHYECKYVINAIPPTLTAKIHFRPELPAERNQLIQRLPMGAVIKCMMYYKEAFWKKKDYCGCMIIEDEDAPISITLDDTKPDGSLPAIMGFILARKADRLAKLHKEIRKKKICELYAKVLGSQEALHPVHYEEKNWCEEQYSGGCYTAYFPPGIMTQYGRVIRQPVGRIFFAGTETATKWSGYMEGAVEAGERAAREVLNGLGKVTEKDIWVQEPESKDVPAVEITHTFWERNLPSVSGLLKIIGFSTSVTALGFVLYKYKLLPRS

[3] = molecular target: T3, Sodium-dependent serotonin transporter (Homo sapiens, UniProt P31645)
[4] = molecular target: T3, Sodium-dependent serotonin transporter; remark: listed apart in the source
[5] = molecular target: Kappa-type opioid receptor (Homo sapiens, UniProt P41145)
Vasopressin V2 receptor = Vasopressin V2 receptor (Homo sapiens, UniProt P30518)
[6] = molecular target: T4, Muscarinic acetylcholine receptor M2 (Homo sapiens, UniProt P08172); type: functional, cell-based
T4 sequence (P08172 whole entry): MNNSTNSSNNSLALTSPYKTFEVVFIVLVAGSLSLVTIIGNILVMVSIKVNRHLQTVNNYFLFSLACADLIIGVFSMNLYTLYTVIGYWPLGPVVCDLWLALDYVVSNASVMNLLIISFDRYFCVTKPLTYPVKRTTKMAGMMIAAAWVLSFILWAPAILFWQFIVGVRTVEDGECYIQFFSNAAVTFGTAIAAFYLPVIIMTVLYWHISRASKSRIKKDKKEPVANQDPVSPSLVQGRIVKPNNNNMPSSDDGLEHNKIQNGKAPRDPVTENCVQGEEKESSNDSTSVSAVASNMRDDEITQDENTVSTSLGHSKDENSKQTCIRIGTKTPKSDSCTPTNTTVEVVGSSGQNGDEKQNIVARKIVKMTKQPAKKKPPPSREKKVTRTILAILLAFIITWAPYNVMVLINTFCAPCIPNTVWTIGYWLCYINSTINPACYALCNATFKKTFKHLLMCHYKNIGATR

[7] = molecular target: T5, Muscarinic acetylcholine receptor M1 (Homo sapiens, UniProt P11229); type: functional
T5 sequence (P11229 whole entry): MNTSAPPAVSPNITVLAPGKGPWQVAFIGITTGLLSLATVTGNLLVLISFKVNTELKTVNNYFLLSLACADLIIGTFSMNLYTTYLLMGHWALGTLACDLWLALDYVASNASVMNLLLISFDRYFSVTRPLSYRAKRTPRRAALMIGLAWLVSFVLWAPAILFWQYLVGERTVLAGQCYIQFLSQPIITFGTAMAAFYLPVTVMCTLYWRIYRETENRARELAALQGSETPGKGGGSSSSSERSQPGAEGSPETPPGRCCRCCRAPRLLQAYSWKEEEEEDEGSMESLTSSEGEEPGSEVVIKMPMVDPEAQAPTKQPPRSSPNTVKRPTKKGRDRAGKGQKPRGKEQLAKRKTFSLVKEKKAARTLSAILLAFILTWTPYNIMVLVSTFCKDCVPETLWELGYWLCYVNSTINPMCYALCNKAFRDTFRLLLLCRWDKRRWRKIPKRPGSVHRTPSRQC

[8] = molecular target: T1, 5-hydroxytryptamine receptor 1A; type: functional, cell-based
[9] = molecular target: T4, Muscarinic acetylcholine receptor M2; type: functional, cell-based; remark: listed apart in the source
[10] = molecular target: T6, Alpha-1A adrenergic receptor (Homo sapiens, UniProt P35348); type: functional, cell-based
T6 sequence (P35348 whole entry): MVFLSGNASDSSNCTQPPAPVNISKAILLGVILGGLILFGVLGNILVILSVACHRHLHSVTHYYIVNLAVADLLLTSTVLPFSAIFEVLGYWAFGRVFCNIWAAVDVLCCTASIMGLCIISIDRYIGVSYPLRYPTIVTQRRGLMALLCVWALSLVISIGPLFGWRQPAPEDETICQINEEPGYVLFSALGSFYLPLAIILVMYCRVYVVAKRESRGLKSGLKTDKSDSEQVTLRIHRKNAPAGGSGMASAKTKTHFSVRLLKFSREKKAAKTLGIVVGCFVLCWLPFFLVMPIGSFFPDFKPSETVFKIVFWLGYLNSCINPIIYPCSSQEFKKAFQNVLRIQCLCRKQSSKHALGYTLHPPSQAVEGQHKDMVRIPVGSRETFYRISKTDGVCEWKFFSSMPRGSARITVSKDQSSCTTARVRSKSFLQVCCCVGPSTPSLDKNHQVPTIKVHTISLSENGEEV
Note: assay procedure not described here.

Sequence of Kappa-type opioid receptor (P41145 whole entry): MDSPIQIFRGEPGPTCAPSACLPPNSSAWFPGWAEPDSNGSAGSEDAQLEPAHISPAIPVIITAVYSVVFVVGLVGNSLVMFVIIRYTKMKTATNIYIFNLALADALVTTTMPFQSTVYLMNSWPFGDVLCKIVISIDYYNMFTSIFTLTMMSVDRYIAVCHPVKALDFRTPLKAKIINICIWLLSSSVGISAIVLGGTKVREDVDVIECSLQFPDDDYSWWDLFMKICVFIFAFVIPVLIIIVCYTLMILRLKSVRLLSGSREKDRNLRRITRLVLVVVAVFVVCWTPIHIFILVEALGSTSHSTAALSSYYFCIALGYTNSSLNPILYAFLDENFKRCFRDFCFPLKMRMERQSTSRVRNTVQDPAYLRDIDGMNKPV
T3 sequence (P31645 whole entry): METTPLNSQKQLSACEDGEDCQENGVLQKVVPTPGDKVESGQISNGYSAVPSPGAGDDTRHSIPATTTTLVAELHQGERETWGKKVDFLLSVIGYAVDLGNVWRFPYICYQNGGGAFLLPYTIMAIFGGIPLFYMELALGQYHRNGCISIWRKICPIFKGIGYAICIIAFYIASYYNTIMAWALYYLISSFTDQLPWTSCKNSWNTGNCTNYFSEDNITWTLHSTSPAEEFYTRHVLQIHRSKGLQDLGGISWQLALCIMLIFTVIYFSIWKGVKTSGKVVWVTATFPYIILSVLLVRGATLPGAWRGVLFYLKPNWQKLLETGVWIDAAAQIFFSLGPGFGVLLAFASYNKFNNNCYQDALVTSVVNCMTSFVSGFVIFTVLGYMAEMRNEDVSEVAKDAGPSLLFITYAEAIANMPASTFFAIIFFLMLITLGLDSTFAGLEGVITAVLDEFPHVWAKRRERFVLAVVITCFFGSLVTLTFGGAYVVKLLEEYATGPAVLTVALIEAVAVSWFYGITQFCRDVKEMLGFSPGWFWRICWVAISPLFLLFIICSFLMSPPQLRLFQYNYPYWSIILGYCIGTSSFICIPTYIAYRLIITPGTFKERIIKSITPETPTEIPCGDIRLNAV
Sequence of Vasopressin V2 receptor (P30518 whole entry): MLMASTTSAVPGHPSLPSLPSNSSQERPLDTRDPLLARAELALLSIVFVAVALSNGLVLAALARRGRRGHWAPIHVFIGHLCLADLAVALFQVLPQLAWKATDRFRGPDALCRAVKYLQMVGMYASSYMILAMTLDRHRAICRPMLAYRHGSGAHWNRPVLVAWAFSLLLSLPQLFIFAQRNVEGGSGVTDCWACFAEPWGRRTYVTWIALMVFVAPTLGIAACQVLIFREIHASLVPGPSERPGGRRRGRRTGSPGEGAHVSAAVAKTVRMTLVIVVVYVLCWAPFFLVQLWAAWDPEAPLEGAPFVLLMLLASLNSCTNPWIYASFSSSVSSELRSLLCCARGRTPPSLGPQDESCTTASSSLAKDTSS

| Compound | AC50 [1] | AC50 [2] | AC50 [3] | AC50 [4] | AC50 [5] | AC50 (Vasopressin V2 receptor) | AC50 [6] | AC50 [7] | AC50 [8] | AC50 [9] | AC50 [10] |
| --- | --- | --- | --- | --- | --- | --- | --- | --- | --- | --- | --- |
| O=C(O)[C@H](O)[C@@H](O)[C@H](O)[C@H](O)CO [GLUCONIC ACID] | > 30 µM | > 30 µM | > 30 µM | – | – | – | – | – | – | – | – |
| CC#CC(=O)N1CCC[C@H]1c1nc(-c2ccc(C(=O)Nc3ccccn3)cc2)c2c(N)nccn12 [ACALABRUTINIB] | > 30 µM | > 30 µM | > 30 µM | – | – | – | – | – | – | – | – |
| CCCCCCCCCCCCCCCC(=O)OC[C@H](COP(=O)([O-])OCC[N+](C)(C)C)OC(=O)CCCCCCCCCCCCCCC [COLFOSCERIL PALMITATE] | > 30 µM | > 30 µM | > 30 µM | – | – | – | – | – | – | – | – |
| O=C1[C@@H]2[C@H]3CC[C@H](C3)[C@@H]2C(=O)N1C[C@@H]1CCCC[C@H]1CN1CCN(c2nsc3ccccc23)CC1 [LURASIDONE] | – | > 30 µM | > 30 µM | > 30 µM | – | – | – | – | – | – | – |
| CN1CCC(N(Cc2cccs2)c2ccccc2)CC1 [THENALIDINE] | 8.65 µM | > 30 µM | 18 µM | – | – | – | – | – | – | – | – |
| N=C(N)NCC1COc2ccccc2O1 (centres undefined) [GUANOXAN] | 1.27 µM | > 30 µM | > 30 µM | – | – | – | – | – | – | – | – |
| CN(C)CCN(Cc1ccccc1)c1ccccn1 [TRIPELENNAMINE] | > 30 µM | > 30 µM | 0.395 µM | 0.209 µM | 6.25 µM | > 10 µM | > 10 µM | > 10 µM | > 10 µM | > 10 µM | – |
| NC(=O)C1(N2CCCCC2)CCN(CCCN2c3ccccc3CCc3ccccc32)CC1 [CARPIPRAMINE] | 2.83 µM | > 30 µM | 2.73 µM | – | – | – | – | – | – | – | – |
| CC(C)NC[C@H](O)COc1ccc(O)cc1 [PRENALTEROL] | > 30 µM | > 30 µM | > 30 µM | – | – | – | – | – | – | – | – |
| O=C(O)[C@@H](S)[C@@H](S)C(=O)O | > 30 µM | > 30 µM | > 30 µM | – | – | – | – | – | – | – | – |
| COc1cccc2c1C(=O)c1c(O)c3c(c(O)c1C2=O)C[C@@](O)(C(=O)CO)C[C@@H]3O[C@H]1C[C@H](N)[C@H](O[C@@H]2CCCCO2)[C@H](C)O1 [PIRARUBICIN] | > 30 µM | > 30 µM | > 30 µM | – | – | – | – | – | – | – | – |
| Cc1cc(C)cc(OCC2CNC(=O)O2)c1 (centres undefined) [METAXALONE] | > 30 µM | 15.4 µM | > 30 µM | – | – | – | – | – | – | – | – |
| N#Cc1ccnc(N2C(=O)CC[C@H]2C(=O)N(c2cncc(F)c2)[C@H](C(=O)NC2CC(F)(F)C2)c2ccccc2Cl)c1 [IVOSIDENIB] | > 30 µM | > 30 µM | > 30 µM | – | – | – | – | – | – | – | – |
| NC(=O)C1(N2CCCCC2)CCN(CCCC(=O)c2ccc(F)cc2)CC1 [PIPAMPERONE] | 11.5 µM | > 30 µM | 15.8 µM | – | – | – | – | – | – | – | – |
| C[C@H](Nc1ncnc2[nH]cnc12)c1cc2cccc(Cl)c2c(=O)n1-c1ccccc1 [DUVELISIB] | > 30 µM | > 30 µM | > 30 µM | > 30 µM | – | – | > 30 µM | > 30 µM | > 30 µM | > 30 µM | > 30 µM |
| C[C@]12CC[C@@H]3c4ccc(OC(=O)N(CCCl)CCCl)cc4CC[C@H]3[C@@H]1CC[C@@H]2OP(=O)(O)O [ESTRAMUSTINE PHOSPHATE] | > 30 µM | > 30 µM | > 30 µM | – | – | – | – | – | – | – | – |
| CC1=C(C/C=C(\C)CCC[C@H](C)CCC[C@H](C)CCCC(C)C)C(=O)c2ccccc2C1=O [PHYTONADIONE] | > 30 µM | > 30 µM | > 30 µM | – | – | – | – | – | – | – | – |
| CCCCCCO[C@@H](C)c1cccc(-c2csc(NC(=O)c3cc(Cl)c(/C=C(\C)C(=O)O)c(Cl)c3)n2)c1OC [LUSUTROMBOPAG] | 6.96 µM | > 30 µM | > 30 µM | – | – | – | – | – | – | – | – |
| O=C(Cc1cccs1)N[C@@H]1C(=O)N2C(C(=O)[O-])=C(C[n+]3ccccc3)CS[C@H]12 [CEPHALORIDINE] | > 30 µM | > 30 µM | > 30 µM | – | > 30 µM | – | > 30 µM | > 30 µM | > 30 µM | > 30 µM | > 30 µM |
| CC(C)Nc1cccnc1N1CCN(C(=O)c2cc3cc(NS(C)(=O)=O)ccc3[nH]2)CC1 [DELAVIRDINE] | > 30 µM | 24 µM | > 30 µM | – | – | – | – | – | – | – | – |
| Cc1cccc(C)c1NC(=O)c1cc(S(N)(=O)=O)c(Cl)cc1O [XIPAMIDE] | > 30 µM | > 30 µM | > 30 µM | – | – | – | – | – | – | – | – |
| CCCCCCCC/C=C\CCCCCCCC(=O)O [OLEIC ACID] | > 30 µM | > 30 µM | > 30 µM | – | – | – | – | – | – | – | – |
| O=c1[nH]c2ccccc2n1CCN1CCN(c2cccc(C(F)(F)F)c2)CC1 [FLIBANSERIN] | 0.003 µM | > 30 µM | 17.7 µM | – | – | – | – | – | – | – | – |
| C#CCN(C)Cc1ccccc1 [PARGYLINE] | > 30 µM | – | > 30 µM | – | > 30 µM | – | > 30 µM | > 30 µM | – | > 30 µM | > 30 µM |
| CC(C)(Oc1ccc(Cl)cc1)C(=O)NC(=O)NCN1CCOCC1 [PLAFIBRIDE] | > 30 µM | > 30 µM | > 30 µM | – | – | – | – | – | – | – | – |
| C=CCOc1ccc(CC(=O)O)cc1Cl [ALCLOFENAC] | > 30 µM | > 30 µM | > 30 µM | – | – | – | – | – | – | – | – |
| CO[C@@]1(NC(=O)C(C(=O)O)c2ccc(O)cc2)C(=O)N2C(C(=O)O)=C(CSc3nnnn3C)CO[C@@H]21 (some centres undefined) [MOXALACTAM] | > 30 µM | > 30 µM | > 30 µM | – | – | – | – | – | – | – | – |
